Structures can show the parent of a compound that is named as a salt.
Assay: collision cross section in nitrogen (drift tube, single-field); higher = larger gas-phase ion size
[1] = ion type: [M-H], ion source: ESI, ion mode: Negative
[2] = ion type: [M+H], ion source: APCI, ion mode: Positive
[3] = ion type: [M+H], ion source: ESI, ion mode: Positive
[4] = ion type: [M+Na], ion source: ESI, ion mode: Positive
[5] = ion type: [M+], ion source: APCI, ion mode: Positive
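Also: chemical standards at 10 µM analysed by drift tube IMS-QTOF MS in about 3.95 torr nitrogen, mean of duplicate injections differing ≤1%, mass error below 10 ppm.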

SMILES	collision cross section in nitrogen [1]	collision cross section in nitrogen [3]	also measured
Oc1ccc2c(c1)Cc1ccccc1-2 [2-Hydroxyfluorene]	141.5 Å²		
Oc1ccccc1I [2-Iodophenol]	121.9 Å²		
Cc1cc(=O)nc(C(C)C)[nH]1 [2-Isopropyl-6-methyl-4-pyrimidone]	135.5 Å²	132.5 Å²	collision cross section in nitrogen [2]: 133.9 Å²; collision cross section in nitrogen [4]: 146.4 Å²
CC(C)c1ccccc1O [2-Isopropylphenol]	129.3 Å²		
CC(C)c1ccc2sc3ccccc3c(=O)c2c1 [2-Isopropylthioxanthone]		156.4 Å²	collision cross section in nitrogen [2]: 155.5 Å²
CC(C)CC(=O)C1C(=O)c2ccccc2C1=O [2-Isovaleryl-1,3-indanedione]	154.2 Å²		
S=c1[nH]c2ccccc2[nH]1 [2-Mercaptobenzimidazole]	127.1 Å²	127.8 Å²	collision cross section in nitrogen [2]: 128 Å²; collision cross section in nitrogen [5]: 125.7 Å²
Sc1nc2ccccc2s1 [2-Mercaptobenzothiazole]	128.2 Å²		
COc1ccccc1C=O [2-Methoxybenzaldehyde]			collision cross section in nitrogen [5]: 124.1 Å²
Cc1c(O)cccc1O [2-Methyl-1,3-benzenediol]	123.6 Å²		
Cn1sccc1=O [2-Methyl-3(2H)-isothiazolone]		117.9 Å²	collision cross section in nitrogen [2]: 117.1 Å²
Cn1sccc1=O [2-Methyl-3-isothiazolone hydrochloride]		118.5 Å²	
CSc1ccc(C(=O)C(C)(C)N2CCOCC2)cc1 [2-Methyl-4'-(methylthio)-2-morpholinopropiophenone]		166.7 Å²	collision cross section in nitrogen [2]: 166.4 Å²
CCCCCCCCSCc1cc(C)c(O)c(CSCCCCCCCC)c1 [2-Methyl-4,6-bis[(octylthio)methyl]phenol]	208 Å²		
Cc1ccc2c(c1)C(=O)c1ccccc1C2=O [2-Methylanthraquinone]	145.3 Å²		
Cc1ccccc1S(=O)(=O)O [2-Methylbenzenesulfonic acid]	131.9 Å²		
Cc1ncc[nH]1 [2-Methylimidazole]	112.8 Å²		
Cc1ccc2ccccc2n1 [2-Methylquinoline]		126.2 Å²	collision cross section in nitrogen [2]: 125.2 Å²
CCCCCCCCCCCCCC(=O)OC(CO)CO [2-Myristoyl glycerol]			collision cross section in nitrogen [4]: 183.7 Å²
Oc1ccc2ccccc2c1 [2-Naphthalenol]	128.7 Å²		
O=C(O)COc1ccc2ccccc2c1 [2-Naphthoxyacetic acid]	151.2 Å²		
Nc1ccccc1[N+](=O)[O-] [2-Nitrobenzenamine]	121.6 Å²		
O=[N+]([O-])c1ccc2c(c1)Cc1ccccc1-2 [2-Nitrofluorene]	141.1 Å²		
O=[N+]([O-])c1ccccc1O [2-Nitrophenol]	121.2 Å²		
NC(=O)CN1CCCC1=O [2-Oxo-1-Pyrrolidineacetamide]			collision cross section in nitrogen [4]: 136.8 Å²
c1ccc(-c2nc3ccccc3[nH]2)cc1 [2-Phenylbenzimidazole]	142.6 Å²	143 Å²	collision cross section in nitrogen [2]: 142.8 Å²
Oc1ccccc1-c1ccccc1 [2-Phenylphenol]	136.4 Å²		
OCCC1CCCCN1 (stereo unspecified) [2-Piperidineethanol]		126.6 Å²	collision cross section in nitrogen [2]: 125.7 Å²
